According to US4123540A, “Isoclavulanic acid as an antibacterial and a β-lactamase inhibitor” (Beecham Group Limited, priority 1974, dated 1978):
Structures can show the parent of a compound that is named as a salt.

Legend:
Proteus mirabilis C889 = experiment: MIC / synergism with methyl ester (Example 32); format: cell-based; conditions: in the presence of 5 μg/ml. clavulanic acid methyl ester
[1] = test system: Staphylococcus aureus (Russell); experiment: MIC / synergism with methyl ester (Example 32); format: cell-based; conditions: in the presence of 1.0 μg/ml. clavulanic acid methyl ester
[2] = test system: Staphylococcus aureus Russell; experiment: MIC, microtitre technique (Example 53); format: cell-based
Text: (§1) The results were obtained by the microtitre technique with an inoculum of 1/500 of overnight broth.

Klebsiella aerogenes A = experiment: MIC / synergism, microtitre method (Example 42); format: cell-based; conditions: method of Example 42 (μg/ml)
[3] = test system: Klebsiella aerogenes E 70; experiment: MIC / synergism, microtitre method (Example 42); format: cell-based; conditions: method of Example 42 (μg/ml)
Klebsiella aerogenes 62 = experiment: MIC / synergism, microtitre method (Example 42); format: cell-based; conditions: method of Example 42 (μg/ml)
Klebsiella aerogenes E70 = experiment: MIC, microtitre technique (Example 53); format: cell-based
Text: as §1

[4] = molecular target: T1, β-lactamase produced by Escherichia coli JT4 (Escherichia coli, UniProt P62593); experiment: β-lactamase inhibition assay (Description 1); format: biochemical
T1 construct: This cell suspension was then disrupted in an MSE ultrasonic disintegrator at 4° C; endogenous in cells; host or cells: Escherichia coli JT4 (ampicillin-resistant, R-factor), supernatant of sonicated cells
T1 sequence (P62593 24-286 limits assumed): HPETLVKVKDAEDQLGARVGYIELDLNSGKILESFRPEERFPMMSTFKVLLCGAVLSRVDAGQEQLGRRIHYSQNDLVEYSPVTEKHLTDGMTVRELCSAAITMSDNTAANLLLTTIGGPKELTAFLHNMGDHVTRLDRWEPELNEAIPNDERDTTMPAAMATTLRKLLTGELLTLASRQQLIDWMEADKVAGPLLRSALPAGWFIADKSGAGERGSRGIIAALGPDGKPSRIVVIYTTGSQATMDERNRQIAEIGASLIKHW
Protocol: During this time, enzyme inhibition or inactivation occurs. Substrate (benzylpenicillin) is then added and incubation continued for 30 minutes at 37° C. The amount of enzymic degradation of the substrate to penicilloic acid is determined by the hydroxylamine assay for penicillin. The amount of β-lactamase used is such as to give 75% hydrolysis of the benzylpenicillin in 30 minutes at 37° C.
(§2) The extent of hydrolysis is a reflection of the amount of enzyme remaining uninhibited.
The β-lactamase produced by Escherichia coli JT4 is used as an enzyme. […] Other similar R-factor controlled β-lactamases may be used if desired.
The culture maintained on nutrient agar slopes, is inoculated into 400 ml. of sterile Tryptone medium contained in a 2 liter conical flask. This medium has the following composition Tryptone (Oxoid) 32 g/l, yeast extract (Oxoid) 20 g/l, NaCl 5 g/l and CaCl2 6H2 O 2.2 g/l. The final pH was adjusted to 7.4 with dilute NaOH. The flask is shaken at 25° C for 20 hours on a rotary shaker at 240 r.p.m. […]
Suitable dilutions of the inhibitor preparation and β-lactamase solution are mixed and incubated at 37° C for 15 minutes (Test). […] The absorption of the final solutions is measured in an E.E.L. Colorimeter or a Spectrophotometer at 490 nm against the reagent blank.
The percentage inhibition of the β-lactamase is calculated as follows […]

[5] = molecular target: T2, β-lactamase of Staphylococcus aureus (Russell) (Staphylococcus aureus, UniProt P00807); experiment: β-lactamase inhibition assay; format: biochemical; conditions: standard enzyme inhibitory assay (Example 49); read-out: I50 (converted)
T2 construct: endogenous in cells; host or cells: Staphylococcus aureus (Russell)
T2 sequence (P00807 25-281): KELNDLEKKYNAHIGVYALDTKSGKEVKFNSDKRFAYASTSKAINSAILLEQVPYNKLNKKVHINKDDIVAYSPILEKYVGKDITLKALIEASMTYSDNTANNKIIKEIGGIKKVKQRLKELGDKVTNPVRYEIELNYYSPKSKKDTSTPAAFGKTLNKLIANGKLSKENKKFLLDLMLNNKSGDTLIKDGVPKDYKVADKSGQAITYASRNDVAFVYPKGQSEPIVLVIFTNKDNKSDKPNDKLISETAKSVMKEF
Protocol: Solutions containing clavulanic acid (culture filtrate, samples from isolation procedure and the like) are incubated for 15 minutes with a β-lactamase preparation in 0.05M phosphate buffer at pH 7 and 37° C. During this time, enzyme inhibition or inactivation occurs. Substrate (benzylpenicillin) is then added and incubation continued for 30 minutes at 37° C. The amount of enzymic degradation of the substrate to penicilloic acid is determined by the hydroxylamine assay for penicillin. The amount of β-lactamase used is such as to give 75% hydrolysis of the benzylpenicillin in 30 minutes at 37° C.
as §2
Suitable dilutions of the inhibitor preparation and β-lactamase solution are mixed and incubated at 37° C for 15 minutes (Test). A control with buffer in place of inhibitor preparation is also incubated. Benzylpenicillin solution (substrate) is then added to test and control mixtures, incubation continued for a further 30 minutes at 37° C. […] 6 ml. of hydroxylamine reagent are added to all tests, controls and blanks and are allowed to react for 10 minutes at room temperature prior to the addition of 2 ml of ferric ammonium sulphate reagent. The absorption of the final solutions is measured in an E.E.L. Colorimeter or a Spectrophotometer at 490 nm against the reagent blank.

[6] = test system: Staphylococcus aureus(Russell); experiment: MIC / synergism, microtitre method (Example 42); format: cell-based; conditions: synergist (clavulanic acid sodium salt) added at 1 μg/ml. instead of 5 μg/ml.
[7] = hydrolysis of ester in phosphate buffer pH 7; format: physicochemical; conditions: 1 mg/ml., 37° C, 0.05M phosphate buffer at pH 7, followed over 2 hours by paper chromatography
Protocol: The reaction was followed by paper chromatography (bioautographic system). Using the butanol/ethanol/water system to follow the reaction over a period of 2 hours the zone of the methyl ester at Rf 0.79 decreased in size as the zone of clavulanic acid at Rf 0.12 increased.

[8] = head prints sodium clavulanate, title sodium isoclavulanate, inoculum 1/500

CC1(C)S[C@@H]2[C@H](NC(=O)[C@H](N)c3ccccc3)C(=O)N2[C@H]1C(=O)O [Ampicillin, ampicillin]
minimum inhibitory concentration (M.I.C.) of antibiotic in presence of synergist (Proteus mirabilis C889): 31 µg/mL
minimum inhibitory concentration (M.I.C.) of antibiotic in presence of synergist [1]: < 0.4 µg/mL
MIC of Ampicillin + 1μg/ml sodium clavulanate [2, 8]: 3.9 µg/mL
MIC of Ampicillin + 5μg/ml sodium clavulanate [2, 8]: 0.78 µg/mL
MIC of Ampicillin + 20μg/ml sodium clavulanate [2, 8]: 0.39 µg/mL
MIC of Ampicillin + 5 μg/ml of Benzyl Ester of clavulanic acid (Klebsiella aerogenes A): 1.9
MIC of Ampicillin + 5 μg/ml of Methyl Ester of clavulanic acid (Klebsiella aerogenes A): 1.9
MIC of Ampicillin + 5 μg/ml of Benzyl Ester of clavulanic acid [3]: 3.9
MIC of Ampicillin + 5 μg/ml of Methyl Ester of clavulanic acid [3]: 3.9
MIC of Ampicillin + 5 μg/ml of Benzyl Ester of clavulanic acid (Klebsiella aerogenes 62): 3.9
MIC of Ampicillin + 5 μg/ml of Methyl Ester of clavulanic acid (Klebsiella aerogenes 62): 3.9
MIC of Ampicillin + 1μg/ml sodium clavulanate (Klebsiella aerogenes E70; [8]): 15.6 µg/mL
MIC of Ampicillin + 20μg/ml sodium clavulanate (Klebsiella aerogenes E70; [8]): 6.2 µg/mL

O=C(COc1ccccc1)OC/C=C1\O[C@@H]2CC(=O)N2[C@H]1C(=O)OCc1ccccc1 [Benzyl phenoxyacetylclavulanate]
IC50 ([4]; benzylpenicillin substrate, 15 min preincubation, pH 7, 37° C): 5.9 µM
IC50 [5]: 17.7 µM

O=C(Cc1cccs1)N[C@@H]1C(=O)N2C(C(=O)[O-])=C(C[n+]3ccccc3)CS[C@H]12 [Cephaloridine, cephaloridine]
Minimum Inhibitory Concentration of cephaloridine in presence of synergist [6]: Same value

COC(=O)[C@H]1/C(=C/CO)O[C@@H]2CC(=O)N21 [clavulanic acid methyl ester]
hydrolysis of the ester to clavulanic acid [7]: Slow conversion of the ester to clavulanic acid

O=C(O)[C@H]1/C(=C/CO)O[C@@H]2CC(=O)N21 [clavulanic acid sodium salt, 3-(β-hydroxyethylidine)-7-oxo-4-oxa-1-azabicyclo [3,2,0]heptane-2-carboxylic acid sodium salt]
MIC ([2]; Staphylococcus aureus, compound alone, inoculum of 1/500 of overnight broth): 125 µg/mL
MIC (Klebsiella aerogenes E70; Klebsiella aerogenes, E70): 500 µg/mL

O=C(O)[C@H]1/C(=C/CO)O[C@@H]2CC(=O)N21 [clavulanic acid, Z-(2R,5R)-3-(β-hydroxyethylidene)-7-oxo-4-oxa-1-azabicyclo[3,2,0]heptane-2-carboxylic acid]
mode of inhibition of the β-lactamase [4]: progressively and irreversibly inhibits
